According to US7405051B2, “Method of screening antiplatelet agents” (Astellas Pharma Inc., priority 2000, dated 2008):

Columns and labels:
[1] = test system: ADP-induced platelet aggregation of human PRP; test: ADP-induced human platelet aggregation in platelet-rich plasma (aggregometer); type: cell-based; settings: sodium citrate, ADP 20 to 200 μmol/L added as inducer, FIGS. 1 and 2
Description: Blood was collected from a healthy person (adult) by using 1/10 volume of sodium citrate, and then platelet-rich plasma(PRP) was prepared in accordance with a method of De Marco et al. (J. Clin. Invest., 77, 1272-1277, 1986). The PRP was used after preparing it to 3×10^8 cells/mL by using an automatic blood cell counter (MEK6258; Nihon Kohden Corporation). As an inducer of aggregation, ADP which is a product manufactured by MC Medical Corporation was used.
The platelet aggregation was measured by using an aggregometer (MCM Hema Tracer 212; MC Medical Corpration). […] Changes of a transmitted light were recorded for 10 minutes, and then an aggregation inhibition (%) was calculated from the maximum aggregation rate.
The data for 2MeSAMP (FIG. 1) are represented by the “average” of the experiment results obtained by using two volunteers. […] The inhibitory strength was dependent on the concentration of ADP as an inducer.

[2] = biological target: T1, HORK3 protein (human ADP receptor P2TAC) (Homo sapiens, UniProt Q9H244); test: Forskolin-stimulated cAMP production in C6-15 cell expressing HORK3 protein (cAMP HTRF); type: cell-based; settings: C6-15 cells expressing HORK3; for EC50: 1 μmol/L forskolin, 37° C. 30 minutes, read-out: EC50, responsiveness against the HORK3 protein (decrease of cAMP produced by forskolin)
T1 sequence (Q9H244 whole entry): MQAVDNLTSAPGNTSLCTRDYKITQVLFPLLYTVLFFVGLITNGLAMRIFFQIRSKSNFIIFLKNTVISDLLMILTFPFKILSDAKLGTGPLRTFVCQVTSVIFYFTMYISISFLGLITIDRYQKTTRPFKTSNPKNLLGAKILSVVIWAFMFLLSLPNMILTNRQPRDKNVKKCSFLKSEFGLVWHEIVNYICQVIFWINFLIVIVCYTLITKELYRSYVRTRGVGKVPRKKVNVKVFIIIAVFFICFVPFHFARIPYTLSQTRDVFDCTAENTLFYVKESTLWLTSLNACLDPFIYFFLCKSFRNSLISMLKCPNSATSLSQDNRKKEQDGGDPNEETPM
Description: The C6-15 cells expressing the HORK3 protein were seeded on a 96-well plate (1×10^4 cells/well). After culturing for 1 day, cells were treated with a DMEM medium containing 1 mmol/L 3-isobutyl-1-methylxanthine (manufactured by Sigma) and 0.1% BSA for 10 minutes, and then the combination of 1 μmol/L forskolin (manufactured by Wako Pure Chemical Industries) and 2MeSADP (a final concentration=1×10^−12 to 1×10^−7 mol/L), or the combination of 1 μmol/L forskolin and ADP (a final concentration=1×10^−10 to 1×10^−5 mol/L) was added dropwise. After incubating at 37° C. for 30 minutes, the culture supernatant was discarded, and then cells were dissolved in PBS containing 0.2% Triton X-100.
The amount of cAMP produced in each cell under each condition was measured by using a cAMP HTRF kit (manufactured by CIS bio international) in accordance with a protocol attached thereto. When the amount of cAMP produced by stimulating with 1 μmol/L forskolin alone was regarded as 100%, a concentration-dependent curve for the amount of cAMP in the presence of 2MeSADP or ADP was drawn.
Next, effects of compounds, which are known to suppress the platelet aggregation, on the suppression of the amount of cAMP produced by the forskolin stimulus in the C6-15 cell expressing the HORK3 protein by 2MeSADP were examined. […] After incubating at 37° C. for 30 minutes, the culture supernatant was discarded, and then cells were dissolved in PBS containing 0.2% Triton X-100. The amount of cAMP produced was measured by using the cAMP HTRF kit in accordance with a protocol attached thereto. When the amount of cAMP produced by stimulating with 1 μmol/L forskolin alone was regarded as 0%, and that by stimulating with the combination of 1 μmol/L forskolin and 10 nmol/L 2MeSADP was regarded as 100%, a concentration-dependent curve of each inhibitor was drawn.

[3] = biological target: T1, HORK3 protein (human ADP receptor P2TAC); test: [3H]-2MeSADP binding assay on membrane fraction of C6-15 cell expressing HORK3 protein; settings: 1 nmol/L [3H]-2MeSADP; 20 μg membrane fraction; room temperature 2 hours
Excerpt: The C6-15 cells expressing the HORK3 protein prepared in Example 5 were taken and washed, and then suspended in 20 mmol/L Tris-HCl (pH7.4) containing 5 mmol/L EDTA and a protease inhibitor cocktail set (Complete™; manufactured by Boeringer Mannheim). The whole was homogenized by using a POLYTRON, and ultracentrifuged. The pellet was suspended in 50 mmol/L Tris-HCl (pH7.4) containing 1 mmol/L EDTA, 100 mmol/L NaCl, 0.1% BSA, and Complete™ to obtain a membrane fraction.
After [^3H]-2MeSADP (manufactured by Moravek Biochemical) was added to 20 μg of the membrane fraction as a final concentration of 0.25 to 50 nmol/L, and was incubated in 250 μL of 50 mmol/L Tris-HCl (pH7.4) containing 1 mmol/L EDTA, 100 mmol/L NaCl, 0.1% BSA, and Complete™ at room temperature for 1 hour, the whole was collected on a glass filter by using a cell harvester. A microscintillator was added to the glass filter, and then a total amount of binding to the membrane fraction was measured by using a liquid scintillation counter. Further, an amount of non-specific binding to the membrane fraction was measured by adding 2MeSADP (a final concentration=50 μmol/L) in the above assay.
A microscintillator was added to the glass filter, and then radioactivity was measured by using a liquid scintillation counter. Further, radioactivity was measured by not adding the compound and by adding 2MeSADP (a final concentration=10 μmol/L) in the above assay, as a total amount of binding and an amount of non-specific binding, respectively.

[4] = test system: CHO cell transfected with the empty vector; test: Forskolin-stimulated cAMP production in control CHO cell transfected with the empty vector; type: cell-based, Chinese hamster; settings: 3 μmol/L forskolin
Description: The CHO-dhfr(−) line was seeded on each 10 cm-petri dish (1×10^6 cells/dish) by using an αMEM (with nucleic acids) medium. After culturing for 1 day, a gene transfection was carried out by using a transfection reagent (LipofectAMINE 2000; manufactured by GIBCO BRL) and the plasmid pEF-BOS-dhfr-HORK3 (8 μg). As a control, a gene transfection was carried out by using the plasmid pEF-BOS-dhfr (i.e., an empty vector without the HORK3 gene), instead of the plasmid pEF-BOS-dhfr-HORK3.
After 24 hours from the gene transfection procedure, the transfected cells were taken and suspended in an αMEM (without nucleic acids) medium containing 100 nmol/L methotrexate (a competitive inhibitor of DHFR; manufactured by Wako Pure Chemical Industries). Each suspension was gradually diluted and reseeded on each 10 cm-petri dish. Colonies which appeared after 2 weeks were individually taken, and used as a CHO cell expressing the HORK3 protein or a control CHO cell transfected with the empty vector in the following experiment.
The CHO cells expressing the HORK3 protein or the CHO cells transfected with the empty vector were seeded on a 24-well plate (1×10^5 cells/well). […]
The amount of cAMP produced in each cell under each condition was measured by using the cAMP-EIA system in accordance with a protocol attached thereto. […]

[5] = biological target: T1, HORK3 protein (human ADP receptor P2TAC); test: Increase in intracellular Ca2+ concentration in C6-15 cell co-expressing HORK3 protein and Gqi (FLIPR); type: cell-based; design: expressed in transfected cells; host or cells: C6-15 rat glioma cells, transient co-transfection of pEF-BOS-dhfr-HORK3 and pEF-BOS-Gqi; settings: C6-15 cells transfected with pEF-BOS-dhfr-HORK3 and pEF-BOS-Gqi; peak values, Logistic regression
Description: When most purines such as ADP, 2MeSADP (2-methylthio-ADP), or the like are added to a cell, the increase in intracellular Ca^2+ via an endogenous cellular membrane receptor is observed. […] In the present example, the C6-15 cell was used to express the HORK3 protein.
Further, the plasmid pEF-BOS-dhfr-HORK3 obtained in Example 1 was used as an expression plasmid to be used for expressing the HORK3 protein. […]
(§1) A time course of the change in the intracellular Ca^2+ concentration was measured by using FLIPR (manufactured by Molecular Device). More particularly, after 10 seconds from the beginning of measurement, 2MeSADP or ADP was added to wells to a final concentration of 3×10^−5 mol/L to 1×10^−12 mol/L. After the addition, each fluorescence intensity was measured at an interval of 1 second for 50 seconds, and then at an interval of 6 seconds for 4 minutes.
The change of the intracellular Ca^2+ concentration by 2MeSADP or ADP in the cells to which the plasmid pEF-BOS-dhfr-HORK3 and the plasmid pEF-BOS-Gqi had been transfected was measured, each peak value in various concentrations of 2MeSADP or ADP was plotted, and then the dependency upon the concentration was analyzed by using a Logistic regression method.

[6] = biological target: T1, HORK3 protein (human ADP receptor P2TAC); test: Inhibition of forskolin-stimulated cAMP production in CHO cell expressing HORK3 protein; type: cell-based; settings: CHO-dhfr(-) cells expressing HORK3; 3 μmol/L forskolin; 37° C. 30 minutes; read-out: EC50, responsiveness against the HORK3 protein (decrease of cAMP produced by forskolin)
Excerpt: It was found from Example 3 that the ADP receptor was a Gi-coupled receptor, and thus it is expected that the ADP receptor has an activity of suppressing the adenylate cyclase activity. […] In this connection, a dihydrofolate reductase (DHFR; an essential enzyme for de novo synthesis of nucleic acids) defective cell line [CHO-dhfr(−) line] was used in the present example. The plasmid pEF-BOS-dhfr-HORK3 was used as an expression plasmid to be used for expressing the HORK3 protein. The CHO-dhfr(−) line was seeded on each 10 cm-petri dish (1×10^6 cells/dish) by using an αMEM (with nucleic acids) medium. […] As a control, a gene transfection was carried out by using the plasmid pEF-BOS-dhfr (i.e., an empty vector without the HORK3 gene), instead of the plasmid pEF-BOS-dhfr-HORK3. After 24 hours from the gene transfection procedure, the transfected cells were taken and suspended in an αMEM (without nucleic acids) medium containing 100 nmol/L methotrexate (a competitive inhibitor of DHFR; manufactured by Wako Pure Chemical Industries). Each suspension was gradually diluted and reseeded on each 10 cm-petri dish. […] The amount of cAMP produced in each cell under each condition was measured by using the cAMP-EIA system in accordance with a protocol attached thereto.

[7] = test system: C6-15 cells transfected with pEF-BOS-dhfr (empty vector) and pEF-BOS-Gqi; test: Intracellular Ca2+ concentration in control C6-15 cells transfected with empty vector and Gqi; type: cell-based, rat; settings: empty vector plus Gqi control cells; 3x10^-5 to 1x10^-12 mol/L
Description: The C6-15 cells were seeded on a 96-well plate (96 well Black/clear bottom plate, collagen I coated; manufactured by BECTON DICKINSON) so that the concentration of cells became 2×10^4 cells/well. After culturing for 48 hours, a gene transfection was carried out by using a transfection reagent (LipofectAMINE 2000; manufactured by GIBCO BRL) and the combination of the plasmid pEF-BOS-dhfr-HORK3 (50 ng/well) and the plasmid pEF-BOS-Gqi (50 ng/well). As a control, a gene transfection was carried out by using the combination of the plasmid pEF-BOS-dhfr (i.e., an empty vector without the HORK3 gene) and the plasmid pEF-BOS-Gqi, instead of the combination of the plasmid pEF-BOS-dhfr-HORK3 and the plasmid pEF-BOS-Gqi. […]
as §1, with “minutes. […]” for “minutes.”

CSCCNc1nc(SCCC(F)(F)F)nc2c1ncn2[C@@H]1O[C@H](COP(=O)(O)OP(=O)(O)C(Cl)(Cl)P(=O)(O)O)[C@@H](O)[C@H]1O [AR-C69931MX, N6-[2-methylthioethyl]-2-[3,3,3-trifluoropropylthio]-5′-ade nylic acid, monoanhydride with dichloromethylenebiphosphonic acid]
inhibition of ADP-induced platelet aggregation [1]: inhibited the ADP-induced platelet aggregation concentration-dependently

CSc1nc(N)c2ncn([C@@H]3O[C@H](COP(=O)(O)O)[C@@H](O)[C@H]3O)c2n1 [2MeSAMP, 2-methylthio-adenosine monophosphate]
IC50 ([2]; 1 μmol/L forskolin and 10 nmol/L 2MeSADP, read-out: IC50, inhibitory effect on the suppression by 2MeSADP in the amount of cAMP produced by the forskolin stimulus): 5 µM | IC50 [3]: 4.9 µM | inhibition of ADP-induced platelet aggregation [1]: inhibited the ADP-induced platelet aggregation concentration-dependently

CSc1nc(N)c2ncn([C@@H]3O[C@H](COP(=O)(O)OP(=O)(O)O)[C@@H](O)[C@H]3O)c2n1 [2MeSADP, 2-methylthio-ADP]
EC50 [2]: 0.08 nM | changes in the amount of cAMP produced by the forskolin stimulus [4]: no changes | EC50 [5]: 5.4 nM | EC50 [6]: 0.07 nM | change of the intracellular Ca2+ concentration [7]: not observed

Nc1ncnc2c1ncn2[C@@H]1O[C@H](COP(=O)(O)OP(=O)(O)O)[C@@H](O)[C@H]1O [ADP, adenosine 5′-diphosphate]
EC50 [2]: 42 nM | changes in the amount of cAMP produced by the forskolin stimulus [4]: no changes | EC50 [5]: 220 nM | EC50 [6]: 35 nM | change of the intracellular Ca2+ concentration [7]: not observed
